Each structure is given as a SMILES string.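 Exposure lasted 48 hours, with cells grown in 96-well plates and compounds tested at five concentrations. TGI: total growth inhibition.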

Our source for the TGI values is PubChem BioAssay (NCI).

Test systems include SK-MEL-28 melanoma; HOP-92 NSCLC; KM12 colon; MOLT-4 leukemia; HCT-116 colon; SNB-19 CNS; U251 CNS; TK-10 renal; PC-3 prostate; NCI-H460 lung.
Common to all, as to assay: NCI-60 cell line screen, 48 h

Take `O=C(c1ccc([N+](=O)[O-])cc1)N1CCCC1`: the TGI in the assay with SK-MEL-28 melanoma, in the assay on HOP-92 NSCLC, in the assay with KM12 colon, with MOLT-4 leukemia, with HCT-116 colon and in the assay with SNB-19 CNS was greater than 100 µM each time. Further, the TGI in the assay on U251 CNS, in the assay on TK-10 renal, with PC-3 prostate and in the assay with NCI-H460 lung was greater than 100 µM in each case.

As for `CC(=N/NC(=S)N(C)C)/C(=N\NC(=S)N(C)C)c1ccccc1`, the TGI with SK-MEL-28 melanoma was 4.03 µM; with HOP-92 NSCLC, 3.53 µM; in the assay with KM12 colon it was 4.44 µM; in the assay with MOLT-4 leukemia, greater than 100 µM; in the assay on HCT-116 colon, 9.77 µM; in the assay on SNB-19 CNS it was 6.85 µM. For the same compound, the TGI amounted to 7.96 µM with U251 CNS, 3 µM in the assay on TK-10 renal, 4.64 µM in the assay on PC-3 prostate and 3.91 µM in the assay with NCI-H460 lung.

For the compound `CN1c2ccccc2C2=C(c3ccccc3)CC[C@@H](C(=O)N3C4CC5CC[C@@]4(CS3(=O)=O)C5(C)C)[C@@H]21` (stereo not given in full), the TGI in the assay with SK-MEL-28 melanoma, in the assay on HOP-92 NSCLC, in the assay on KM12 colon, in the assay on MOLT-4 leukemia, in the assay on HCT-116 colon and with SNB-19 CNS was greater than 100 µM each time. The TGI in the assay on U251 CNS, in the assay on TK-10 renal, in the assay on PC-3 prostate and with NCI-H460 lung was greater than 100 µM each time.

With `NC(=O)c1ccc[n+](C2=C([O-])c3ccccc3C(=O)/C2=N\S(=O)(=O)c2ccccc2)c1`, the TGI in the assay with SK-MEL-28 melanoma was 30.2 µM; with HOP-92 NSCLC, 26.5 µM; in the assay on KM12 colon it was 26.7 µM; in the assay with MOLT-4 leukemia it was 81.5 µM; in the assay with HCT-116 colon, 32.4 µM; in the assay on SNB-19 CNS it was 29.9 µM. Moreover, the TGI in the assay with U251 CNS is 29 µM; with TK-10 renal, greater than 100 µM; in the assay on PC-3 prostate, 30.2 µM; in the assay on NCI-H460 lung, 47.9 µM.

Consider `NC(=O)C1CCN(Cc2c(Cl)c(Cl)c(CN3CCC(C(N)=O)CC3)c(Cl)c2Cl)CC1`, for which the TGI in the assay with SK-MEL-28 melanoma, in the assay on HOP-92 NSCLC, in the assay with KM12 colon, in the assay on MOLT-4 leukemia, in the assay on HCT-116 colon and with SNB-19 CNS was greater than 100 µM each time. The TGI in the assay on U251 CNS, with TK-10 renal, with PC-3 prostate and with NCI-H460 lung was greater than 100 µM throughout.

With `Cn1c(=O)cc(NNc2ccc(Cl)c(Cl)c2)[nH]c1=O`, the TGI with SK-MEL-28 melanoma was 25.1 µM; with HOP-92 NSCLC, 28.5 µM; with KM12 colon, 30.2 µM; in the assay with MOLT-4 leukemia, 58.2 µM; with HCT-116 colon it was 20.5 µM; with SNB-19 CNS it was greater than 100 µM. The TGI in the assay on U251 CNS amounted to 24.8 µM; in the assay with TK-10 renal, 30.6 µM; in the assay on PC-3 prostate, 25.4 µM; in the assay with NCI-H460 lung, 20.3 µM.

For `Oc1ccccc1/C=N/N1C(=S)N(C23CC4CC(CC(C4)C2)C3)C(=Nc2ccccc2)C1=Nc1ccccc1`, the TGI with SK-MEL-28 melanoma, in the assay on HOP-92 NSCLC, in the assay on KM12 colon, with MOLT-4 leukemia, in the assay with HCT-116 colon and in the assay on SNB-19 CNS was greater than 100 µM in each case. Also, the TGI in the assay on U251 CNS, with TK-10 renal, in the assay with PC-3 prostate and in the assay on NCI-H460 lung was greater than 100 µM in each case.

With `CN(C)CCNCCCNc1c2ccccc2nc2cccc([N+](=O)[O-])c12`, the TGI in the assay on SK-MEL-28 melanoma was 0.442 µM; in the assay with HOP-92 NSCLC, 0.0346 µM; with KM12 colon, 0.111 µM; in the assay on MOLT-4 leukemia it was less than 0.0192 µM; in the assay with HCT-116 colon, 0.0594 µM; in the assay on SNB-19 CNS, 0.177 µM. The TGI stood at 0.0801 µM with U251 CNS, 0.176 µM in the assay on TK-10 renal, 0.0609 µM in the assay on PC-3 prostate and 0.108 µM with NCI-H460 lung.

Consider `O=C1C=CC(=O)c2c(O)c(N3CCC[C@@H]3CO)c(Cl)c(O)c21`, for which the TGI stood at 3.24 µM in the assay with SK-MEL-28 melanoma; 3.04 µM in the assay on HOP-92 NSCLC; 3.16 µM in the assay on KM12 colon; 1.14 µM with MOLT-4 leukemia; 2.91 µM in the assay on HCT-116 colon; 3.09 µM in the assay with SNB-19 CNS. Moreover, the TGI with U251 CNS was 3.46 µM; in the assay with TK-10 renal, 3.3 µM; in the assay on PC-3 prostate it was 4.78 µM; in the assay with NCI-H460 lung, 3.52 µM.
